Here are results for 6 molecules from ChEMBL document CHEMBL4007488, “Amphiphilic Indole Derivatives as Antimycobacterial Agents: Structure-Activity Relationships and Membrane Targeting Properties” (J Med Chem, 2017).

pIC50: −log10 of the molar value. In brackets after ≈: the same amount, converted by molar mass. Activity calls are given as the source filed them.

Series [1] is described as follows: Half life in rat liver microsomes preincubated for 5 mins followed by NADPH addition measured up to 45 mins by LC-MS analysis. It counts as ADME, microsome.
Series [2] has as its system Vero C1008. The experiment in a line: Cytotoxicity against African green monkey Vero E6 cells assessed as reduction in cell viability after 48 hrs by 96 aqueous one-based assay. The note with it: Chlorocebus sabaeus, Vero C1008, 48 h.
Series [3] deals with Mycolicibacterium smegmatis. Description: Antimycobacterial activity against Mycobacterium smegmatis MC2 155 ATCC 700084 assessed as growth inhibition at 10 uM after 5 days relative to control. It counts as functional. The note with it: MC2 155 ATCC 700084, 120 h, read-out: GI.
Series [4] can be described thus: Aqueous solubility of compound at pH 7.4 at 25 degC after 24 hrs. It counts as physicochemical. As to conditions: buffer.
The test system of series [5] is Mycobacterium tuberculosis. The experiment in a line: Antimycobacterial activity against Mycobacterium tuberculosis H37Rv ATCC 27294 assessed as growth inhibition at 10 uM after 5 days relative to control. Type of series: functional. As to conditions: H37Rv ATCC 27294, 120 h, read-out: GI.
Series [6] deals with Mycobacterium tuberculosis. The experiment in a line: Antimycobacterial activity against Mycobacterium tuberculosis H37Rv ATCC 27294 after 5 days by broth dilution method. As to conditions: H37Rv ATCC 27294, 120 h. It counts as functional. (Broth dilution looks for growth in wells or tubes with falling amounts of substance.)
The subject of series [7] is HepG2. Description: Cytotoxicity against human HepG2 cells assessed as reduction in cell viability after 48 hrs by MTT assay. The note with it: HepG2, 48 h. Type of series: cell-based. A general note: Formazan colour is commonly taken as a measure of viable cells.
A short description of series [8]: Selectivity index, ratio of IC50 for human HepG2 cells to MIC50 for Mycobacterium tuberculosis H37Rv ATCC 27294. Type of series: toxicity. The note with it: read-out: Selectivity Index.
Series [9] is described as follows: Selectivity index, ratio of IC50 for African green monkey Vero E6 cells to MIC50 for Mycobacterium tuberculosis H37Rv ATCC 27294. Type of series: toxicity, Vero C1008. The note with it: read-out: Selectivity Index.
Series [10] has as its system Lipid bilayer. The experiment in a line: Binding affinity to DMPG vesicles assessed as melting transition temperature by differential scanning calorimetric analysis (reference value: 21.09 to 23.32 degC).
The test system of series [11] is Lipid bilayer. The experiment in a line: Binding affinity to DMPG vesicles assessed as change in enthalpy by differential scanning calorimetric analysis. Background: DSC measures the heat that a sample takes up or gives off during a temperature scan.
Series [12] has as its system Mycobacterium avium. Description: Antimycobacterial activity against Mycobacterium avium 11 after 4 days. Type of series: functional. As to conditions: Mycobacterium avium, 11, 96 h.
Series [13] has as its system Escherichia coli. The experiment in a line: Antibacterial activity against Escherichia coli ATCC 25922 after 18 hrs. It counts as functional.
For series [14], the system named is Lipid bilayer. Description: Binding affinity to DMPG vesicles assessed as increase in width at 1/2 height of endotherm of compound containing vesicles by differential scanning calorimetric analysis.
Series [15] in a line: Therapeutic index, ratio of HC50 for human RBC to MIC50 for Mycobacterium tuberculosis H37Rv ATCC 27294.
Series [16] relates to Mycobacteroides abscessus. Description: Antimycobacterial activity against Mycobacterium abscessus Bamboo after 3 days. The note with it: 72 h. Type of series: functional.
In series [17] the test system is Staphylococcus aureus. The experiment in a line: Antibacterial activity against Staphylococcus aureus ATCC 29213 after 18 hrs. As to conditions: ATCC 29213, 18 h. It counts as functional.

The term half-life denotes the time needed for the level to fall by half in the phase considered. By pIC50 is commonly meant the negative decadic logarithm of the IC50, by convention in mol/L. For orientation: solubility means how much of the substance goes into solution per volume. What is called MIC50 is an inhibitory concentration at the 50% level, which refers to growth in some studies and to a panel of isolates in others. In general, MIC90 refers to the lowest concentration that inhibits either 90% of growth or 90% of the strains tested, depending on the study. For the molecule `CCCCCCCCn1cc(CNC23CC4CC(CC(C4)C2)C3)c2c(F)cccc21`, the half-life in series [1] came out at 15.9 min. Also, the pIC50 was 4.80 in series [2] and 4.89 in [7]. The inhibition of growth at 10 µM in [3] and in series [5] was 99% throughout. The concentration in solution in [4] (solubility at 24 h) was 10.2 µM (≈ 4.19 µg/mL). Besides, the MIC50 in series [6] was 2 µM (≈ 0.821 µg/mL). In series [6], this molecule yielded an MIC90 of 3 µM (≈ 1.23 µg/mL). The values for the selectivity ratio in [8] and in series [9] were 6.5 and 8, respectively.

For the molecule `CCCCCCCCn1cc(CN2CCC(C)CC2)c2c(F)cccc21`, in [10], the Tm was 19.8 °C. In series [1], this molecule yielded a half-life of 22.8 min. Also, the values for the pIC50 in series [2] and in [7] were 4.45 and 4.81, respectively. The inhibition of growth at 10 µM in series [3] and in series [5] was 99% in each case. Also, in series [4], the solubility at 24 h amounted to 23.2 µM (≈ 8.32 µg/mL). Besides, the MIC50 in series [6] came out at 3 µM (≈ 1.08 µg/mL). For the same molecule, the MIC90 in series [6] stood at 6 µM (≈ 2.15 µg/mL). For the same molecule, the selectivity ratio is 5.2 in series [8] and 11.7 in [9]. Moreover, in series [11], the deltaH is -2.69 kcal/mol.

As for `CCCCCCCCn1cc(CN2CCCCCC2)c2c(F)cccc21`, the Tm in series [10] was 18 °C. In series [1], the half-life was 560 min. Moreover, the pIC50 is 4.53 in series [2] and 4.72 in series [7]. The inhibition of growth at 10 µM in [3] and in series [5] was 99% throughout. Besides, the MIC50 came out at 2 µM (≈ 0.717 µg/mL) in series [12], 2.3 µM (≈ 0.825 µg/mL) in series [6], 19 µM (≈ 6.81 µg/mL) in series [16] and 8 µM (≈ 2.87 µg/mL) in series [17]. The same molecule had a solubility at 24 h in [4] of 35.9 µM (≈ 12.9 µg/mL). In series [13], the result was inactive. Besides, the MIC90 in series [6] turned out to be 5 µM (≈ 1.79 µg/mL). Moreover, the result in series [14] was Active. In addition, the selectivity ratio came to 8.3 in series [8] and 12.7 in series [9]. The deltaH in [11] is -1.39 kcal/mol. Also, in [15], the TI is 15 to 30.

In the case of `CCCCCCCCn1cc(CN2CCC3(CC2)OCCO3)c2ccc(OC)cc21`, in [10], the Tm was 18.1 °C. This molecule also had a half-life in series [1] of 27.9 min. In addition, the pIC50 was 4.34 in series [2] and 4.80 in series [7]. In addition, the inhibition of growth at 10 µM in series [3] and in [5] was 99% in each case. The amount in solution in [4] (solubility at 24 h) came to 31.3 µM (≈ 13 µg/mL). Further, the MIC50 in [6] stood at 1.2 µM (≈ 0.498 µg/mL). Further, in series [6], the MIC90 is 2.3 µM (≈ 0.954 µg/mL). Also, the figures for the selectivity ratio in series [8] and in series [9] were 13.1 and 38.4, respectively. The deltaH in [11] was -1.59 kcal/mol. Moreover, in series [15], the TI is 15 to 30.

In the case of `CCCCCCCCn1ccc2c(F)cccc21`, the Tm in series [10] worked out at 19.9 °C. Besides, the inhibition of growth at 10 µM in [3] and in [5] was 99% in each case. The outcome in series [14] was inactive. The deltaH in [11] is -3.34 kcal/mol.

Regarding `CCCCCCCCn1cc(CN2CCC(C)CC2)c2ccc(OC)cc21`, the Tm in [10] was 18.9 °C. Moreover, in [1], the half-life stood at 5.5 min. For the same molecule, the figures for the pIC50 in [2] and in series [7] were 4.49 and 4.80, respectively. Further, the inhibition of growth at 10 µM in [3] and in [5] was 99% each time. In series [4], this molecule came in with a solubility at 24 h of 44.9 µM (≈ 16.6 µg/mL). For the same molecule, the MIC50 in series [6] is 1.5 µM (≈ 0.556 µg/mL). Also, the MIC90 in [6] is 3.3 µM (≈ 1.22 µg/mL). Also, the selectivity ratio in series [8] came out at 10.5; in series [9], 21.5. Further, in series [11], the deltaH is -1.63 kcal/mol. For the same molecule, the TI in [15] was 15 to 30.
